The results in this text go back to patent US5439887A, “Peptide having antihypertensive activity free of vascoconstrictor activity” (Roussel-Uclaf, priority 1992, dated 1995).

Each structure is given as a SMILES string. Bridge positions count the residues as written; N and C are the ends. Peptide text beside a SMILES is read from it.

The target in this test is endothelin receptor. The experiment in a line: [125I]endothelin displacement from rat posterior cortex plus cerebellum membranes. It counts as binding. Conditions: displacement of [125I]endothelin, rat brain membranes, 25° C., 60 minutes. The method, then: A membrane preparation was made from rat posterior cortex plus cerebellum and the tissue was ground using a POLYTRON in 50 mM Tris buffer pH 7.4. After 30 minutes at 25° C. (water bath), the homogenate was centrifuged at 30,000 g for 15 minutes (2 centrifugations interspersed by taking up in Tris buffer pH 7.4).
The pellets were resuspended in an incubation buffer (25 mM Tris, pepstatin A 5 μg/ml, aprotinin 3 μg/ml, 0.1 mM PMSF, 3 mM EDTA, 1 mM EGTA pH 7.4).
2 ml aliquots were distributed in haemolysis tubes and [125 I]endothelin (approximately 50,000 dpm/tube) and the test product were added. The product was first tested at […] in triplicate. When the test product displaced by more than 50% the radioactivity specifically bound to the receptor, it was tested again in a series of 7 concentrations to determine the concentration which inhibited by 50% the radioactivity specifically bound to the receptor. The 50% inhibitory concentration was thereby determined.
Non-specific binding was determined by adding 10^-6 M endothelin (in triplicate). The preparation was incubated at 25° C. for 60 minutes, put back on a water bath at 0° C. for 5 minutes, filtered off under reduced pressure and rinsed with […] Tris buffer pH 7.4, and the radioactivity was counted in the presence of Triton scintillant. The result was expressed directly as a 50% inhibitory concentration (IC50), that is to say as a concentration of test product, expressed in nM, required to displace 50% of the specific radioactivity bound to the receptor under study.
As for `CC[C@H](C)[C@H](NC(=O)[C@H](CC(=O)O)NC(=O)[C@H](CC(C)C)NC(=O)[C@H](Cc1c[nH]cn1)NC(=O)[C@@H]1CSSC[C@H](NC(=O)[C@@H](N)CO)C(=O)N[C@@H](CC(N)=O)C(=O)N[C@@H](CO)C(=O)N[C@@H](Cc2c[nH]c3ccccc23)C(=O)N[C@@H](CC(C)C)C(=O)N[C@@H](CC(=O)O)C(=O)N[C@@H](CCCCN)C(=O)N[C@@H](CCC(=O)O)C(=O)N[C@@H](C)C(=O)N[C@@H](C(C)C)C(=O)N[C@@H](Cc2ccc(O)cc2)C(=O)N[C@@H](Cc2ccccc2)C(=O)N1)C(=O)N[C@H](C(=O)N[C@@H](Cc1c[nH]c2ccccc12)C(=O)O)[C@@H](C)CC` [Example 16] (H-SCNSWLDKEAVYFCHLDIIW-OH; disulfide 2-14), the IC50 worked out at 7.2 nM.
With `CC[C@H](C)[C@H](NC(=O)[C@H](CC(=O)O)NC(=O)[C@H](CC(C)C)NC(=O)[C@H](Cc1c[nH]cn1)NC(=O)[C@@H]1CSSC[C@H](NC(=O)[C@@H](N)CO)C(=O)N[C@@H](Cc2ccccc2)C(=O)N[C@@H](CO)C(=O)N[C@@H](CO)C(=O)N[C@@H](CC(C)C)C(=O)N[C@@H](CC(=O)O)C(=O)N[C@@H](CCCCN)C(=O)N[C@@H](CCC(=O)O)C(=O)N[C@@H](C)C(=O)N[C@@H](C(C)C)C(=O)N[C@@H](Cc2ccc(O)cc2)C(=O)N[C@@H](Cc2ccccc2)C(=O)N1)C(=O)N[C@H](C(=O)N[C@@H](Cc1c[nH]c2ccccc12)C(=O)O)[C@@H](C)CC` [Example 15] (H-SCFSSLDKEAVYFCHLDIIW-OH; disulfide 2-14), the IC50 stood at 17 nM.
The value for `CC[C@H](C)[C@H](NC(=O)[C@H](CC(=O)O)NC(=O)[C@H](CC(C)C)NC(=O)[C@H](Cc1c[nH]cn1)NC(=O)[C@@H]1CSSC[C@H](N)C(=O)N[C@@H](CO)C(=O)N[C@H]2CSSC[C@H](NC(=O)[C@H](CCC(=O)O)NC(=O)[C@H](CCCCN)NC(=O)[C@H](CC(=O)O)NC(=O)[C@H](CC(C)C)NC(=O)[C@H](CC(=O)O)NC(=O)[C@H](CO)NC(=O)[C@H](Cc3ccccc3)NC2=O)C(=O)N[C@@H](C(C)C)C(=O)N[C@@H](Cc2ccc(O)cc2)C(=O)N[C@@H](Cc2ccccc2)C(=O)N1)C(=O)N[C@H](C(=O)N[C@@H](Cc1c[nH]c2ccccc12)C(=O)O)[C@@H](C)CC` [Example 9] (H-CSCFSDLDKECVYFCHLDIIW-OH; disulfide 1-15, 3-11) was 2.4 nM; that for `CC[C@H](C)[C@H](NC(=O)[C@H](CC(=O)O)NC(=O)[C@H](CC(=O)O)NC(=O)[C@H](Cc1c[nH]cn1)NC(=O)[C@@H]1CSSC[C@H](N)C(=O)N[C@@H](CO)C(=O)N[C@H]2CSSC[C@H](NC(=O)[C@H](CCC(=O)O)NC(=O)[C@H](CCCCN)NC(=O)[C@H](CC(=O)O)NC(=O)[C@H](CC(C)C)NC(=O)[C@H](Cc3c[nH]c4ccccc34)NC(=O)[C@H](CO)NC(=O)[C@H](CC(N)=O)NC2=O)C(=O)N[C@@H](C(C)C)C(=O)N[C@@H](Cc2ccc(O)cc2)C(=O)N[C@@H](Cc2ccccc2)C(=O)N1)C(=O)N[C@H](C(=O)N[C@@H](Cc1c[nH]c2ccccc12)C(=O)O)[C@@H](C)CC` [Example 12] (H-CSCNSWLDKECVYFCHDDIIW-OH; disulfide 1-15, 3-11) was 6.8 nM.
